Assay results taken from patent US9452157B2, “Pharmaceutical compositions comprising rifaximin and amino acids, preparation methods and use thereof” (ALFA WASSERMANN SPA, priority 2012, dated 2016).

Legend:
[1] = format: physicochemical
Procedure: A rifaximin amount corresponding to 200 mg was dissolved in 10 ml of a solution formed by ethanol/water 1:4 (v/v), left for two days under stirring at room temperature.
Rifaximin solubility was determined by wavelength spectrophotometry at wavelength 276 nm with a rifaximin calibration curve.

[2] = WO 2005/044823; cited from earlier work

| Rifaximin solubility [1] | solubility of rifaximin [1] | SMILES | water solubility [2] |
| --- | --- | --- | --- |
| 48 µg/mL | 48 µg/mL | CO[C@H]1/C=C/O[C@@]2(C)Oc3c(C)c(O)c4c(O)c(c5c(nc6cc(C)ccn65)c4c3C2=O)NC(=O)/C(C)=C\C=C\[C@H](C)[C@H](O)[C@@H](C)[C@@H](O)[C@@H](C)[C@H](OC(C)=O)[C@@H]1C [Rifaximin] |  |
|  |  | CO[C@H]1/C=C/O[C@@]2(C)Oc3c(C)c(O)c4c(O)c(c5c(nc6cc(C)ccn65)c4c3C2=O)NC(=O)/C(C)=C\C=C\[C@H](C)[C@H](O)[C@@H](C)[C@@H](O)[C@@H](C)[C@H](OC(C)=O)[C@@H]1C [rifaximin polymorph α] | substantially insoluble |
